Results reported in patent US20260297070A1, “CYCLIC [COMPOUND LEFT OUT] WRN INHIBITORS” (Nimbus Wadjet, Inc., priority 2023, published 2026).

target: T1, human Werner helicase (WRN-BV08, Uniprot Q14191, amino acids 517-1235 with L1074F point mutation) (Homo sapiens, UniProt Q14191, L1074F); assay: WRN (BV08) ADP-Glo Assay; format: biochemical; settings: 0.15 nM WRN, 5 μM ATP, 0.1 nM DNA duplex, 15 min preincubation, 60 min at 25° C., pH 7.5, 1% DMSO; read-out: ADP-Glo_hWRN_IC50
T1 construct: Uniprot Q14191, amino acids 517-1235 with L1074F point mutation; TEV-cleavable 8×His (C, cleaved yes); made in house; host or cells: Sf9 insect cells (baculovirus)
T1 sequence (Q14191 with tags, fused parts or gaps L1074F limits assumed): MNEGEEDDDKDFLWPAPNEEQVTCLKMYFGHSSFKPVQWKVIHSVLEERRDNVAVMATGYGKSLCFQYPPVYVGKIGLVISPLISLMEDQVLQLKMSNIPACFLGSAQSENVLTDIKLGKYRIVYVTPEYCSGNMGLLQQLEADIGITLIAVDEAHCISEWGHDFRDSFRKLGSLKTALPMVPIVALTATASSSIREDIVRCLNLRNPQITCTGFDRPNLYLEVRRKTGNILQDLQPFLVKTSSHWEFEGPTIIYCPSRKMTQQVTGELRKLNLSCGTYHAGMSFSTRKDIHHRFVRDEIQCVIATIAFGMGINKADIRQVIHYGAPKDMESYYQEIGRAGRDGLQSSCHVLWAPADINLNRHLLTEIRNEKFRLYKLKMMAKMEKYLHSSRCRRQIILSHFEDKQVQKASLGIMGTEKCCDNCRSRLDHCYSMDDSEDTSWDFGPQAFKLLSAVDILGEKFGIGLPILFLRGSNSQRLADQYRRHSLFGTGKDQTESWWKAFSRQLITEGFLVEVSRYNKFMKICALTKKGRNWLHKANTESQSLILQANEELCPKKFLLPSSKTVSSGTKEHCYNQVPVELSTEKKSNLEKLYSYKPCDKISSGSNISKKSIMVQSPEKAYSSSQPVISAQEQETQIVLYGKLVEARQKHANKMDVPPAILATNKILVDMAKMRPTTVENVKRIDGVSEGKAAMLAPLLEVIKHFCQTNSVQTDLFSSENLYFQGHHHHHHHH
From the text: Example 2: WRN (BV08) ADP-Glo Assay Protocol
Bovine skin gelatin (BSG), dimethyl sulfoxide (DMSO), Pluronic F-127 and Tris(2-carboxyethyl)phosphine hydrochloride solution (TCEP) were purchased from Sigma-Aldrich at the highest level of purity possible. Bicine buffer solution was purchased from Alfa Aesar and compound NSC-617145 was purchased from Tocris. DNA duplex was synthesized at BGI (Shenzhen, China) and was composed of strand 1 with the sequence 5′-[…]-3′ (SEQ ID NO.: 1) and strand 2 with the sequence 5′-[…]-3′ (SEQ ID NO.: 2). DNA strands were annealed by heating to 95° C. for 5 minutes followed by slow cooling to room temperature. Compounds in 100% DMSO (0.1 μl) were spotted into a 384-well white polystyrene Optiplate-384 (Perkin Elmer) assay plate using a LabCyte Echo 550 (Agilent). DMSO (0.1 μl) was added to columns 12, rows A-H and column 24, rows I-P for the maximum signal control. Compound NSC-617145 (0.1 μl) was added to columns 12, rows I-P and 24, rows A-H for the minimum signal control (100% inhibition). Compounds/DMSO were preincubated for 15 minutes at 25° C. with 5 uL 2×WRN (BV08), prepared as described below, in assay buffer containing 20 mM Bicine (pH=7.5), 1 mM MgCl2, 10 mM KCl, 0.1% Pluronic F-127, 0.005% BSG, 1 mM TCEP. The reaction was initiated by the addition of 5 μl 2× substrate mixture in assay buffer and incubated for 60 minutes at 25° C. The final concentrations of the assay components were 0.15 nM WRN, 5 μM ATP, and 0.1 nM DNA duplex. The final DMSO concentration was 1% and the reference compound concentration (NSC-617145) used for the minimal signal control was 20 μM. The reaction was stopped by the addition of the ADP-Glo Kit components (Promega) as directed and the relative luminescence units (RLU) were read on an Envision 2104 (Perkin Elmer).
% Inhibition Calculation:
Where RLU=relative luminescence units, sample=signal in sample well, and MIN and MAX are the respective minimum and maximum signal controls.
Four-Parameter IC50 Fit Equation:
Where top and bottom are normally allowed to float but may be fixed at 100 or 0 respectively in a 3-parameter fit. Y is the % inhibition and X is the compound concentration.
Molecular Biology and virus production. The DNA encoding human Werner helicase (Uniprot Q14191, amino acids 517-1235 with L1074F point mutation) was generated with codon-optimization for E. coli expression and subcloned into the pFastBac vector with a TEV cleavable 8×His tag (WRN-BV08). The baculovirus from the expression plasmid WRN-BV08 was generated from transfection and amplification following the manufacturer's instructions.
Sf9 cells grown in SF900II media were infected with 1:200 WRN-BV08 P2 virus and incubated for protein expression for 72 h at 27° C. The WRN protein was purified using the following protocol. The cell pellets were thawed and resuspended in buffer A (50 mM Tris, pH 7.5, 500 mM NaCl, 1 mM TCEP, 10% Glycerol) supplemented with 0.5% CHAPS, 1 mM [COMPOUND LEFT OUT], 1 μg/mL Leupeptin, 1 μg/mL Pepstatin, and the Pierce Universal Nuclease and cocktail tablet. Cleared lysates were loaded onto a Ni Sepharose™ excel column and washed with buffer A and bound protein was eluted with buffer A supplemented with 300 mM imidazole. The eluted protein was dialyzed against buffer A and digested by His-tagged TEV (1:5 ratio) overnight at 4° C. ZnCl2 was added into the sample at final 15 μM before loading onto a second Ni Sepharose™ excel column. Untagged WRN protein was eluted from the column with buffer A supplemented with 20 mM imidazole, dialyzed overnight into buffer B (50 mM Tris, pH 7.5, 1 mM TCEP, 10% Glycerol) supplemented with 150 mM NaCl and loaded onto a Heparin column. Proteins were eluted with a step gradient of buffer B supplemented with 150 mM, 200 mM, 300 mM and 500 mM NaCl. […]

IC50	SMILES
> 50 µM	CN(C)C(=O)CC(C(=O)N(Cc1ccncc1)C1C=CS(=O)(=O)C1)c1ccc(-n2cccc2)cc1 (stereo not shown) [I-551, N-(1,1-dioxo-2,3-dihydro-1lambda6-thiophen-3-yl)-N′,N′-dimethyl-N-[(pyridin-4-yl)methyl]-2-[4-(1H-pyrrol-1-yl)phenyl]butanediamide]
< 0.5 µM	COc1cc(CN(C(=O)C(C(=O)N(C)C)c2ccc(-c3ccc(F)cc3)cc2F)C2C=CS(=O)(=O)C2)ccn1 (stereo not shown) [I-46, 2-{3,4′-difluoro-[1,1′-biphenyl]-4-yl}-N-(1,1-dioxo-2,3-dihydro-1lambda6-thiophen-3-yl)-N-[(2-methoxypyridin-4-yl)methyl]-N′,N′-dimethylpropanediamide]
5 to 10 µM	O=C(Cc1ccc(-n2cccc2)cc1)N(Cc1cccc2cccnc12)C1C=CS(=O)(=O)C1 (stereo not shown) [I-243, N-(1,1-dioxo-2,3-dihydro-1lambda6-thiophen-3-yl)-2-[4-(1H-pyrrol-1-yl)phenyl]-N-[(quinolin-8-yl)methyl]acetamide]
5 to 10 µM	CC(C(=O)N(Cc1ccncc1)C1C=CS(=O)(=O)C1)c1ccc(-n2cccc2)cc1 (stereo not shown) [I-265, N-(1,1-dioxo-2,3-dihydro-1lambda6-thiophen-3-yl)-N-[(pyridin-4-yl)methyl]-2-[4-(1H-pyrrol-1-yl)phenyl]propanamide]
> 50 µM	O=C(Cc1ccc(-n2cnnc2)cc1)N(Cc1ccncc1)C1C=CS(=O)(=O)C1 (stereo not shown) [I-532, N-(1,1-dioxo-2,3-dihydro-1lambda6-thiophen-3-yl)-N-[(pyridin-4-yl)methyl]-2-[4-(4H-1,2,4-triazol-4-yl)phenyl]acetamide]
> 50 µM	O=C(Cn1cc(-c2ccccc2)nn1)N(Cc1ccncc1)C1C=CS(=O)(=O)C1 (stereo not shown) [I-403, N-(1,1-dioxo-2,3-dihydro-1lambda6-thiophen-3-yl)-2-(4-phenyl-1H-1,2,3-triazol-1-yl)-N-[(pyridin-4-yl)methyl]acetamide]
> 50 µM	O=C(Cc1cccc(CC(F)(F)F)c1)N(Cc1ccncc1)C1C=CS(=O)(=O)C1 (stereo not shown) [I-393, N-(1,1-dioxo-2,3-dihydro-1lambda6-thiophen-3-yl)-N-[(pyridin-4-yl)methyl]-2-[3-(2,2,2-trifluoroethyl)phenyl]acetamide]
0.5 to 5 µM	COc1cc(CN(C(=O)Cn2cc(-c3ccccc3)cn2)C2C=CS(=O)(=O)C2)ccn1 (stereo not shown) [I-94, N-(1,1-dioxo-2,3-dihydro-1lambda6-thiophen-3-yl)-N-[(2-methoxypyridin-4-yl)methyl]-2-(4-phenyl-1H-pyrazol-1-yl)acetamide]
5 to 10 µM	Cc1cccn1-c1ccc(CC(=O)N(Cc2cccnn2)C2C=CS(=O)(=O)C2)c(F)c1 (stereo not shown) [I-224, N-(1,1-dioxo-2,3-dihydro-1lambda6-thiophen-3-yl)-2-[2-fluoro-4-(2-methyl-1H-pyrrol-1-yl)phenyl]-N-[(pyridazin-3-yl)methyl]acetamide]
0.5 to 5 µM	CCOc1cc(CN(C(=O)Cc2ccc(-c3ccc(F)cc3)cc2F)C2C=CS(=O)(=O)C2)ccn1 (stereo not shown) [I-84, 2-{3,4′-difluoro-[1,1′-biphenyl]-4-yl}-N-(1,1-dioxo-2,3-dihydro-1lambda6-thiophen-3-yl)-N-[(2-ethoxypyridin-4-yl)methyl]acetamide]
> 50 µM	O=C(Cc1ccc(-c2nn[nH]n2)cc1)N(Cc1ccncc1)C1C=CS(=O)(=O)C1 (stereo not shown) [I-370, N-(1,1-dioxo-2,3-dihydro-1lambda6-thiophen-3-yl)-N-[(pyridin-4-yl)methyl]-2-[4-(2H-1,2,3,4-tetrazol-5-yl)phenyl]acetamide]
10 to 50 µM	Cc1cccc(-c2ccc(CC(=O)N(Cc3ccncc3)C3C=CS(=O)(=O)C3)cc2)c1 (stereo not shown) [I-288, N-(1,1-dioxo-2,3-dihydro-1lambda6-thiophen-3-yl)-2-{3′-methyl-[1,1′-biphenyl]-4-yl}-N-[(pyridin-4-yl)methyl]acetamide]
5 to 10 µM	O=C(Cc1ccc(S(F)(F)(F)(F)F)cc1)N(Cc1ccnnc1)C1C=CS(=O)(=O)C1 (stereo not shown) [I-646, N-(1,1-dioxo-2,3-dihydro-1lambda6-thiophen-3-yl)-2-[4-(pentafluoro-lambda6-sulfanyl)phenyl]-N-[(pyridazin-4-yl)methyl]acetamide]
